This is an account of results in ChEMBL document CHEMBL4020751, “Synthesis and in vitro biological evaluation of novel coumarin derivatives containing isoxazole moieties on melanin synthesis in B16 cells and inhibition on bacteria” (Bioorg Med Chem Lett, 2017).

One data set deals with Staphylococcus aureus. The data set is described as follows: Antibacterial activity against Staphylococcus aureus ATCC 6538 assessed as diameter of inhibition zone after 24 hrs by agar well diffusion method. Type of data set: functional.
For data set [1], the system named is B16. Description: Potency index, ratio of compound activity to 8-MOP activity for induction of melanin synthesis in mouse B16 cells. In kind it is functional.
In data set [2] the test system is B16. Description: Induction of melanin synthesis in mouse B16 cells assessed as increase in melanin content at 50 uM after 48 hrs measured by spectrophotometric method relative to control. Type of data set: functional.
The next data set deals with Candida albicans. Description: Antifungal activity against Candida albicans ATCC 10231 assessed as diameter of inhibition zone after 24 hrs by agar well diffusion method. Type of data set: functional.
In a further data set the test system is Escherichia coli. The data set is described as follows: Antibacterial activity against Escherichia coli ATCC 11229 assessed as diameter of inhibition zone after 24 hrs by agar well diffusion method. In kind it is functional. Background: In agar diffusion tests the substance spreads into inoculated agar from a disc or well.
For data set [3], the system named is B16. The data set is described as follows: Cytotoxicity against mouse B16 cells at 50 uM after 24 hrs by CCK8 assay. In kind it is cell-based. The note with it: b16, 24 h. A general note: Formazan colour is commonly taken as a measure of viable cells.

`Cc1cc(=O)oc2cc(OCc3cc(-c4cc(Cl)cc(Cl)c4)no3)ccc12`: the “diameter of the inhibition zone (DIZ)” value is “<=7 mm” in the data set on Staphylococcus aureus, 10 mm in the data set on Candida albicans and “<=7 mm” in the data set with Escherichia coli. For the same compound, the Ratio with B16 [1] was found to be 2.6. Further, the Activity with B16 [2] is given as 389.95%; in the data set with B16 [3], “Toxic”.
Consider `Cc1cc(=O)oc2cc(OCc3cc(-c4cccc(F)c4)no3)ccc12`, for which the results for the “diameter of the inhibition zone (DIZ)” value in the data set on Staphylococcus aureus, in the data set with Candida albicans and with Escherichia coli were “<=7 mm”, 7 mm and “<=7 mm”, respectively. Further, the Activity in the data set on B16 [2] was 121.15%.
As for `Cc1cc(=O)oc2cc(OCc3cc(-c4ccccc4)no3)ccc12`, the “diameter of the inhibition zone (DIZ)” value in the data set on Staphylococcus aureus, in the data set with Candida albicans and with Escherichia coli was “<=7 mm” each time. Moreover, the Activity in the data set on B16 [2] is 153.35%.
`COc1ccccc1-c1cc(COc2ccc3c(C)cc(=O)oc3c2)on1`: the “diameter of the inhibition zone (DIZ)” value with Staphylococcus aureus, with Candida albicans and in the data set on Escherichia coli was “<=7 mm” each time. Further, the Activity in the data set on B16 [2] is 145.05%.
Regarding `Cc1cc(=O)oc2cc(OCc3cc(-c4ccc(F)cc4)no3)ccc12`, the “diameter of the inhibition zone (DIZ)” value in the data set on Staphylococcus aureus, in the data set with Candida albicans and with Escherichia coli was “<=7 mm” each time. The Activity in the data set on B16 [2] came to 115.44%.
In the case of `Cc1cc(=O)oc2cc(OCc3cc(-c4ccc(Cl)c(Cl)c4)no3)ccc12`, the “diameter of the inhibition zone (DIZ)” value in the data set on Staphylococcus aureus was “<=7 mm”; with Candida albicans, 10 mm; in the data set on Escherichia coli, “<=7 mm”. Further, the Activity is given as 204.12% in the data set with B16 [2] and “Toxic” in the data set with B16 [3].
With `Cc1cc(=O)oc2cc(OCc3cc(-c4ccc(Cl)c(F)c4)no3)ccc12`, the results for the “diameter of the inhibition zone (DIZ)” value in the data set with Staphylococcus aureus, with Candida albicans and in the data set on Escherichia coli were “<=7 mm”, 7 mm and “<=7 mm”, respectively. Besides, the Activity in the data set on B16 [2] came out at 182.27%.
Turning to `Cc1cc(=O)oc2cc(OCc3cc(-c4cc(I)ccc4F)no3)ccc12`, the “diameter of the inhibition zone (DIZ)” value in the data set with Staphylococcus aureus, in the data set with Candida albicans and in the data set with Escherichia coli was “<=7 mm” each time. Also, the Activity in the data set with B16 [2] is 169.71%.
Consider `Cc1cc(=O)oc2cc(O)ccc12` [HYMECROMONE], for which the “diameter of the inhibition zone (DIZ)” value was “<=7 mm” with Staphylococcus aureus, 7 mm in the data set with Candida albicans and “<=7 mm” in the data set on Escherichia coli. Besides, the Activity in the data set on B16 [2] worked out at 112.2%.
On to `Cc1cc(=O)oc2cc(OCc3cc(-c4cccc(OC(F)(F)F)c4)no3)ccc12`, for which the “diameter of the inhibition zone (DIZ)” value in the data set on Staphylococcus aureus, with Candida albicans and in the data set on Escherichia coli was “<=7 mm” each time. The figures for the Activity in the data set on B16 [2] and with B16 [3] were 203.27% and “Toxic”, respectively.
Consider `Cc1cc(=O)oc2cc(OCc3cc(-c4ccc(Cl)cc4)no3)ccc12`, for which the “diameter of the inhibition zone (DIZ)” value with Staphylococcus aureus, in the data set with Candida albicans and with Escherichia coli was “<=7 mm” in each case. Further, the Activity with B16 [2] is 191.96%.
For the compound `C[C@@H]1[C@H](O)[C@@H](C)/C=C/C=C/C=C/C=C/C=C/C=C/C=C/[C@H](O[C@@H]2O[C@H](C)[C@@H](O)[C@H](N)[C@@H]2O)C[C@@H]2O[C@](O)(C[C@@H](O)C[C@@H](O)[C@H](O)CC[C@@H](O)C[C@@H](O)CC(=O)O[C@H]1C)C[C@H](O)[C@H]2C(=O)O` [AMPHOTERICIN B], the “diameter of the inhibition zone (DIZ)” value with Staphylococcus aureus was “<=7 mm”; with Candida albicans it was 11 mm; in the data set with Escherichia coli it was “<=7 mm”.
Turning to `Cc1cc(=O)oc2cc(OCc3cc(-c4cccc(Cl)c4)no3)ccc12`, the “diameter of the inhibition zone (DIZ)” value in the data set with Staphylococcus aureus is on record as “<=7 mm”; in the data set with Candida albicans, 7 mm; with Escherichia coli it was “<=7 mm”. In addition, the Ratio in the data set on B16 [1] worked out at 1.6. Besides, the Activity is given as 242.18% in the data set on B16 [2] and “Toxic” in the data set on B16 [3].
Consider `Cc1cc(=O)oc2cc(OCc3cc(-c4ccc(F)c(F)c4)no3)ccc12`, for which the entries for the “diameter of the inhibition zone (DIZ)” value in the data set with Staphylococcus aureus, in the data set on Candida albicans and with Escherichia coli were “<=7 mm”, 10 mm and “<=7 mm”, respectively. The Activity with B16 [2] was determined as 156.64%.
For `COc1c2occc2cc2ccc(=O)oc12` [METHOXSALEN], the “diameter of the inhibition zone (DIZ)” value in the data set on Staphylococcus aureus, with Candida albicans and in the data set on Escherichia coli was “<=7 mm” each time. In the data set with B16 [2], the Activity was determined as 149.39%.
`CC1(C)S[C@@H]2[C@H](NC(=O)[C@H](N)c3ccccc3)C(=O)N2[C@H]1C(=O)O` [AMPICILLIN]: the entries for the “diameter of the inhibition zone (DIZ)” value in the data set on Staphylococcus aureus and in the data set with Candida albicans were 19 mm and “<=7 mm”, respectively.
With `Cc1cc(=O)oc2cc(OCc3cc(-c4cc(F)cc(F)c4)no3)ccc12`, the “diameter of the inhibition zone (DIZ)” value in the data set with Staphylococcus aureus was “<=7 mm”; in the data set on Candida albicans, 10 mm; in the data set on Escherichia coli, “<=7 mm”. The Activity in the data set with B16 [2] is on record as 176.55%.
As for `Cc1cc(=O)oc2cc(OCc3cc(-c4ccc5c(c4)OCCO5)no3)ccc12`, the “diameter of the inhibition zone (DIZ)” value in the data set on Staphylococcus aureus, in the data set with Candida albicans and with Escherichia coli was “<=7 mm” in each case. Further, the Activity in the data set on B16 [2] was 178.33%.
In the case of `COc1ccc(-c2cc(COc3ccc4c(C)cc(=O)oc4c3)on2)cc1`, the “diameter of the inhibition zone (DIZ)” value in the data set on Staphylococcus aureus, in the data set on Candida albicans and in the data set with Escherichia coli was “<=7 mm” each time. The Activity in the data set with B16 [2] was found to be 129.45%.
